Assay results: the OPERA property sets (Mansouri et al. 2018)
Converted amounts (≈) assume the structure as drawn.

## CCOC(=O)N(CC)CC
  solubility: 86.1 mM (≈ 12500 µg/mL)

## Nc1ccc2c(c1)C(=O)OC2
25 °C
  solubility: 9.09 mM (≈ 1360 µg/mL)

## Oc1cnc2ccccc2c1
20 °C
  solubility: 4.05 mM (≈ 588 µg/mL)

## Cc1cc(N)n(-c2ccccc2)n1
  solubility: 115 mM (≈ 20000 µg/mL)

## CCC(O)C(Cl)(Cl)Cl (stereo unspecified)
20 °C
  solubility: 113 mM (≈ 20000 µg/mL)

## CC(C)(C(=O)O)C(C)(CC(=O)O)C(=O)O (stereo unspecified)
20 °C
  solubility: 774 mM (≈ 169000 µg/mL)

## C=CCOC(=O)C(C)OC(=O)C(C)O (stereo unspecified)
25 °C
  solubility: 208 mM (≈ 42000 µg/mL)

## CCC(CC)(S(=O)(=O)CC)S(=O)(=O)CC
  solubility: 8.66 mM (≈ 2220 µg/mL)

## CC(=O)OC[C@@H](O)[C@@H](OC(C)=O)[C@H](OC(C)=O)[C@H](C=O)OC(C)=O
25 °C
  solubility: 44.2 mM (≈ 15400 µg/mL)

## O=C1CCCCCCCCCCCCCCCCCN1
22 °C
  solubility: 1.42 mM (≈ 400 µg/mL)

## CCCCOCCOC(N)=O
  solubility: 310 mM (≈ 50000 µg/mL)

## Cc1csc(=S)n1CC(=O)O
20 °C
  solubility: 10.9 mM (≈ 2060 µg/mL)

## Cn1cc2nccnc2nc1=O
20 °C
  solubility: 123 mM (≈ 20000 µg/mL)

## O=[N+]([O-])c1ccc(CO)cc1
20 °C
  solubility: 13.1 mM (≈ 2000 µg/mL)

## O=S(=O)(CCCl)CCOCCS(=O)(=O)CCCl
  solubility: 11.5 mM (≈ 3750 µg/mL)

## CCCOCCC(=O)OC
25 °C
  solubility: 233 mM (≈ 34000 µg/mL)

## O=C1C=CC(=NO)C=C1
20 °C
  solubility: 28.4 mM (≈ 3500 µg/mL)

## O=C1CNC(=S)N1c1ccccc1
25 °C
  solubility: 0.572 mM (≈ 110 µg/mL)

## CC1NC(C)SC(C)S1 (stereo unspecified)
20 °C
  solubility: 42.9 mM (≈ 7000 µg/mL)

## CCOP(=O)(Cc1ccc(-c2nc3ccccc3s2)cc1)OCC
22 °C
  solubility: 0.0996 mM (≈ 36 µg/mL)

## O=C(O)c1c(Cl)c(Cl)c(Cl)c(Cl)c1C(=O)O
20 °C
  solubility: 11.8 mM (≈ 3600 µg/mL)

## NC(=O)Nc1ccc(Br)cc1
25 °C
  solubility: 23.2 mM (≈ 5000 µg/mL)

## N[C@@H](C(=O)O)[C@@H](O)[C@H](O)[C@H](O)CO
20 °C
  solubility: 138 mM (≈ 27000 µg/mL)

## O=C(O)[C@@H]1CC[C@H](C(=O)O)SS1
25 °C
  solubility: 44.9 mM (≈ 9360 µg/mL)

## CC(C)CCOCC(O)CO (stereo unspecified)
  solubility: 61.6 mM (≈ 10000 µg/mL)

## O=c1ccccc(Br)c1O
25 °C
  solubility: 3.67 mM (≈ 738 µg/mL)

## CCC1(CC)C(=O)NC(=O)N=C1N
20 °C
  solubility: 40.1 mM (≈ 7350 µg/mL)

## O=C1CCCCCCCN1
22 °C
  solubility: 4290 mM (≈ 606000 µg/mL)

## Cc1ccc(S(N)(=O)=O)cc1N
24 °C
  solubility: 12.1 mM (≈ 2260 µg/mL)

## NS(=O)(=O)c1cccc(S(N)(=O)=O)c1
25 °C
  solubility: 6.77 mM (≈ 1600 µg/mL)

## c1ccc(CNCCNCc2ccccc2)cc1
24 °C
  solubility: 16.3 mM (≈ 3930 µg/mL)

## Cn1cc([N+](=O)[O-])c(=O)[nH]c1=O
25 °C
  solubility: 10.1 mM (≈ 1720 µg/mL)

## CCCCCc1ccc(O)cc1O
  solubility: 11.1 mM (≈ 2000 µg/mL)

## CCCCN(C(N)=O)c1ccccc1
25 °C
  solubility: 50.5 mM (≈ 9700 µg/mL)

## Cc1ccc(O)c(CO)c1
20 °C
  solubility: 485 mM (≈ 67000 µg/mL)

## Cc1ccccc1OCC(=O)O
25 °C
  solubility: 3.61 mM (≈ 600 µg/mL)

## CC(C)C1OCC2(CO1)COC(C(C)C)OC2 (stereo unspecified)
25 °C
  solubility: 0.769 mM (≈ 188 µg/mL)

## Clc1ncc2nccnc2n1
20 °C
  solubility: 200 mM (≈ 33300 µg/mL)

## N#CCC(=O)Nc1ccccc1
23 °C
  solubility: 1.87 mM (≈ 300 µg/mL)

## O=C(CCl)NC(=O)CCl
25 °C
  solubility: 5.88 mM (≈ 1000 µg/mL)

## O=CNCC(=O)O
25 °C
  solubility: 1850 mM (≈ 191000 µg/mL)

## CC=CC(=O)Nc1ccc(O)cc1
20 °C
  solubility: 2.26 mM (≈ 400 µg/mL)

## CNCl
  solubility: 1910 mM (≈ 125000 µg/mL)

## CCC(=NO)C(CC)=NO
25 °C
  solubility: 2.8 mM (≈ 404 µg/mL)

## FC(F)(F)c1nc2ncncc2[nH]1
20 °C
  solubility: 354 mM (≈ 66700 µg/mL)

## CCOc1ccc(NC(C)=O)c(C)c1
25 °C
  solubility: 14.5 mM (≈ 2800 µg/mL)

## Oc1ccc(C2CCCCC2)cc1
25 °C
  solubility: 0.34 mM (≈ 60 µg/mL)

## CC(NCCC#N)C(=O)O (stereo unspecified)
25 °C
  solubility: 985 mM (≈ 140000 µg/mL)

## CCCCOC(=O)c1ccc(O)c(I)c1
30 °C
  solubility: 0.125 mM (≈ 40 µg/mL)

## C=CCC(C(=O)O)C(C)C(=O)O (stereo unspecified)
20 °C
  solubility: 87.1 mM (≈ 15000 µg/mL)

## Cc1nc2c(c(=O)[nH]c(=O)n2C)n1C
  solubility: 286 mM (≈ 55600 µg/mL)

## NC(=O)NCNC(N)=O
28 °C
  solubility: 223 mM (≈ 29400 µg/mL)

## O=C(O)c1cccc2cccnc12
25 °C
  solubility: 18 mM (≈ 3120 µg/mL)

## CC(CCC(=O)O)NC(=O)c1ccccc1 (stereo unspecified)
25 °C
  solubility: 20.3 mM (≈ 4500 µg/mL)

## Cc1ncc2nccnc2n1
20 °C
  solubility: 760 mM (≈ 111000 µg/mL)

## CCCCCCOC(=O)c1cccnc1
25 °C
  solubility: 2.22 mM (≈ 460 µg/mL)

## O=[N+]([O-])c1cc([N+](=O)[O-])c(-c2ccccc2)cc1O
25 °C
  solubility: 0.0346 mM (≈ 9 µg/mL)

## CCCCCCCC(C(=O)O)C(=O)O
25 °C
  solubility: 9.1 mM (≈ 1840 µg/mL)

## O=C(O)C(I)=C(Br)I
20 °C
  solubility: 51.4 mM (≈ 20700 µg/mL)

## O=C(c1ccccc1I)N(O)c1ccccc1
  solubility: 0.295 mM (≈ 100 µg/mL)

## Cc1cc(Cl)cc(C)c1O
25 °C
  solubility: 21.1 mM (≈ 3300 µg/mL)

## CCc1ccccc1NC(C)=O
30 °C
  solubility: 25.7 mM (≈ 4190 µg/mL)

## CCCCCCNC(=O)c1cccnc1
25 °C
  solubility: 3.01 mM (≈ 620 µg/mL)

## CC(=O)Nc1ccc(Br)cc1C
20 °C
  solubility: 17.5 mM (≈ 4000 µg/mL)

## CCCCCCCCCCCCCCNC(=O)C(C)O (stereo unspecified)
25 °C
  solubility: 0.105 mM (≈ 30 µg/mL)

## O=C(Nc1ccccc1)C(Cl)Cl
20 °C
  solubility: 0.441 mM (≈ 90 µg/mL)

## CCCCCCCCOCC(O)CO (stereo unspecified)
25 °C
  solubility: 12 mM (≈ 2450 µg/mL)

## Cc1c2c(cc3c1ccc1ccccc13)CCCC2
27 °C
  solubility: 0.000179 mM (≈ 0.044 µg/mL)

## C1COC2(C1)CCCO2
  solubility: 780 mM (≈ 100000 µg/mL)

## O=C(O)CSSSSCC(=O)O
  solubility: 35.3 mM (≈ 8700 µg/mL)

## NS(=O)(=O)c1ccc(S(N)(=O)=O)cc1
25 °C
  solubility: 2.96 mM (≈ 700 µg/mL)

## CCCCCOC(=O)C(C)O (stereo unspecified)
25 °C
  solubility: 62.4 mM (≈ 10000 µg/mL)

## O=c1cc(Br)c2ccccc2o1
  solubility: 22.2 mM (≈ 5000 µg/mL)

## O=S(=O)(c1ccccc1)N1CCCCC1
20 °C
  solubility: 2.91 mM (≈ 655 µg/mL)

## Cc1nc2cncnc2n(C)c1=O
20 °C
  solubility: 32.4 mM (≈ 5710 µg/mL)

## Oc1ccccc1Oc1ccccc1
  solubility: 0.591 mM (≈ 110 µg/mL)

## NC(=O)C[C@H](NC(N)=O)C(=O)O
23 °C
  solubility: 308 mM (≈ 54000 µg/mL)

## ON=C1CCCCCCCCC1=NO
25 °C
  solubility: 2.62 mM (≈ 520 µg/mL)

## CCCc1nc(N)c(CC)c(CCC)n1
23 °C
  solubility: 3.07 mM (≈ 636 µg/mL)

## OCc1ccc(Cl)cc1
20 °C
  solubility: 17.5 mM (≈ 2500 µg/mL)

## CCC(=O)OC(C)C(=O)OC (stereo unspecified)
25 °C
  solubility: 137 mM (≈ 22000 µg/mL)

## Cn1c(=O)c2n[se]nc2n(C)c1=O
20 °C
  solubility: 5.02 mM (≈ 1230 µg/mL)

## NC(CO)C(=O)N[C@@H](CO)C(=O)O (stereo in doubt)
  solubility: 260 mM (≈ 50000 µg/mL)

## CCCCOP(=O)(OCC)OCCCC
25 °C
  solubility: 14.3 mM (≈ 3400 µg/mL)

## ON=C1C=CC(=NO)c2ncccc21
25 °C
  solubility: 0.159 mM (≈ 30 µg/mL)

## O=C1OCc2ccc(Cl)cc21
25 °C
  solubility: 3.3 mM (≈ 556 µg/mL)
